This is an account of results in publication PMC8389922, “First-in-Class Cyclic Temporin L Analogue: Design, Synthesis, and Antimicrobial Assessment” (Journal of Medicinal Chemistry, 2021).

In brackets after ≈: the same amount, converted by molar mass. Bridge positions count the residues as written; N and C are the ends. Square brackets hold non-standard residues; d marks the D form. Peptide text beside a SMILES is read from it.

One data set is described as follows: in vitro. The settings on record: male, human, 90% fresh human serum.
In data set [1] the test system is S. aureus ATCC 43300, a methicillin-resistant strain (MRSA). The class given is cell-based, Staphylococcus aureus. How it is done: Thus, 12 was further tested against S. aureus ATCC 43300, a methicillin-resistant strain (MRSA), and compared with the linear precursor 9. […] No growth was observed after 24 h. Peptide 9 was bactericidal as well, by killing MRSA within 10 min, but at a higher concentration (25 μM).
The bacterial strains used in the antimicrobial assays were the Gram-negative E. coli ATCC 25922, P. aeruginosa ATCC 27853, A. baumannii ATCC 19606, the Gram-positive S. aureus ATCC 25923, S. epidermidis ATCC 12228, and B. megaterium Bm11. Methicillin-resistant S. aureus (MRSA) ATCC 43300 was obtained from Culture Collection Center of School of Basic Medical Sciences of Lanzhou University (China).
The determination of MICs was conducted as previously reported.[61] Aliquots of 50 μL of bacterial culture appropriately diluted were added to each well of a 96-well plate to reach a final cell density of 1 × 10^6 CFU/mL and a final peptide concentration ranging from 100 to 0.78 μM (final volume 100 μL).

For data set [2], the system named is preformed biofilm of A. baumannii ATCC 19606. The following applies: ATCC 19606, 20 h. On the procedure:
(§1) Biofilm viability was determined as indicated in the Materials and General Procedures section and expressed as a percentage compared to that of untreated samples (100%). Values are the mean of at least three replicates ± SEM. Data are considered to be statistically significant as follows: *p < 0.05; ***p < 0.001; ****p < 0.0001. Biofilm eradication concentration 90, BEC90, was defined as the concentration able to reduce at least 90% of biofilm cells. TEXT PRINTED IN THE PICTURE: 9: S. aureus ATCC 25923: BEC90 = 25 μM; A. baumannii ATCC 19606: BEC90 > 100 μM | 12: S. aureus ATCC 25923: BEC90 = 12.5 μM; A. baumannii ATCC 19606: BEC90 = 25 μM
(§2) Preformed biofilms of S. aureus ATCC 25923 and A. baumannii ATCC 19606 were obtained as previously reported.[77] Microbial cultures were grown in Luria-Bertani broth (LB) at 37 °C to an optical density (OD) of 0.8 (λ = 590 nm) and then diluted in LB to a cell density of 1 × 10^6 colony-forming units (CFUs)/mL. Aliquots of 100 μL were dispensed into the wells of a 96-well plate, which was incubated for 20 h at 37 °C to allow biofilm formation. The medium containing planktonic cells was then aspirated from the wells and washed twice with 150 μL of phosphate-buffered saline (PBS) to remove any nonadherent cells. […] After treatment, each well was rinsed twice with PBS, as previously described. Then, 150 μL of MTT solution (0.5 mg/mL) were added to each well to evaluate biofilm cell viability. The plates were incubated at 37 °C for 4 h in the dark, and the reaction was stopped by adding sodium dodecyl sulfate (SDS) (at a final concentration of 5% v/v). The absorbance of each well was recorded at 570 nm using a microplate reader (Infinite M200; Tecan, Salzburg, Austria), and the percentage of biofilm cells viability was calculated with respect to the untreated samples (100%).

Data set [3] has as its system preformed biofilm of S. aureus ATCC 25923. On the procedure: as §1, §2
Data set [4] in a line: Membrane fluidity, Laurdan GP value. The following applies: lipid 100 μM, Laurdan 1 μM, PBS pH 7.4, 25 °C, 10 min; for GPlaurdan DOPG/DOPE/CL + cmpd: LUVs alone –0.14; for GPlaurdan DOPG/CL + cmpd: LUVs alone –0.32. How it is done: A membrane fluidity study was performed using Laurdan, a probe with the capacity to insert into membranes and to distribute between liquid phases,[66] changing its emission spectrum.[67] In particular, the maximum emission wavelength of Laurdan is 490 nm when phospholipids are in a disordered phase and it shifts to 440 nm when lipids are in a more packed phase. The generalized polarization (GP) parameter was used to measure quantitatively the emission shift of the Laurdan probe.[68] […] LUVs fluidity was evaluated before and after the addition of 12 and 9 at 25 °C. Before the addition of both peptides, emission of LUVs, mimicking both Gram-positive and Gram-negative membranes, indicated the presence of a disordered phase with a maximum at 490 nm (Table 3). […] In fact, GP parameter indicated the presence of a disordered phase for both Gram-positive and Gram-negative liposomes (Table 3).
Laurdan is extensively used as a fluorescent probe in membrane fluidity study.[79] Laurdan emission spectra encapsulated in large unilamellar vesicles (LUVs) are centered at 490 nm when the lipids are in a disordered phase and the emission shifts to 440 nm when the lipids are in a more packed phase. The preparation of LUVs was performed using the extrusion method.[79] To mimic the lipid composition of Gram-positive and Gram-negative membranes, we used LUVs made of DOPG/CL (58/42 ratio in moles) and DOPG/DOPE/CL (63/23/12 ratio in moles), respectively. First, stock solutions of lipids in chloroform were prepared and the assay was performed using a final lipid concentration of 100 μM. Laurdan (1 μM) was added to chloroform/lipids solution before the evaporation of organic solvent. The mixture of lipids and probe was dried under nitrogen gas stream and freeze-dried overnight. Then, lipid film with Laurdan was hydrated with PBS 1× buffer, pH = 7.4, vortexed for 1 h, and freeze-thawed six times and extruded 10 times through polycarbonate membranes with 0.1 μm diameter pores, obtaining LUVs with encapsulated Laurdan. Stock solutions of 2 mM of linear peptide 9 and lactam-bridged analogue 12 were prepared by dissolving peptides in water. The influence of peptides on membrane fluidity was evaluated at 5 and 30 μM. The peptide was added to LUVs + Laurdan probe, and after 10 min, the fluorescence spectra were recorded using a 1 cm path length quartz cell, thermostated at 25 °C. To measure the Laurdan emission shift and to quantify the variation of membrane fluidity, we calculated the generalized polarization (GP) as GP = (I440 – I490)/(I440 + I490).

Method for in vitro: Peptides were incubated with 90% fresh human serum at 37 ± 1 °C within 12 h.[69] The percentage of intact peptide was monitored by calculating the peak area of the chromatogram from RP-HPLC analysis.
The peptide was incubated in a 1.5 mL eppendorf tube with human serum at a final concentration of 0.2 mM, and the mixture was incubated at 37 ± 1 °C for different periods (0.25, 0.75, 1.5, 2, 3, 4, 6, 7, 8, and 12 h). After the incubation period, an aliquot of reaction solution was taken and added MeCN (double volume respect to the aliquot) for the precipitation of serum proteins present in human serum. The produced cloudy solution was cooled (4 °C) for 15 min and then centrifuged at 13 000 rpm for 10 min to remove the serum protein as pellet. Then, the supernatant was analyzed by RP-UHPLC using a linear elution gradient from 10 to 90% MeCN (0.1% TFA) in water (0.1% TFA) over 20 min. A flow rate of 1 mL/min was employed, and the absorbance of the eluting peaks was detected at 220 nm. The proteolytic stability assay was repeated in triplicate.

Take `CC[C@H](C)[C@H](NC(=O)[C@H](CCCNC(=N)N)NC(=O)[C@@H]1CCC(=O)NCCCC[C@H](NC(=O)[C@H](Cc2ccccc2)NC(=O)[C@H](Cc2c[nH]c3ccccc23)NC(=O)[C@@H]2CCCN2C(=O)[C@@H](NC(=O)[C@@H](N)Cc2ccccc2)C(C)C)C(=O)N[C@@H](CCCCN)C(=O)N[C@@H](Cc2ccccc2)C(=O)N[C@H](CC(C)C)C(=O)N1)C(=O)N[C@@H](CC(C)C)C(N)=O` [compound 12] (H-FVPWFKKF[dL]ERIL-NH2; lactam 6-10): in “in vitro”, the half-life (commonly the time in which the quantity being followed falls by half) at 0.2 mM is about 6 h and the fraction remaining (usually the share of the starting amount still present when the sample was taken) at 1.5 h, 0.2 mM was about 70%. Further, the “MIC S. aureus ATCC 43300 (MRSA)” value in data set [1] was determined as 12.5 µM (≈ 21.3 µg/mL). The “Biofilm Eradication Concentration 90 (BEC90) A. baumannii ATCC 19606” value in data set [2] was determined as 25 µM. Besides, the “reduction of viable S. aureus biofilm cells” value in data set [3] (2 h treatment, from 100 to 12.5 μM, with respect to untreated samples) is listed as “more than 90%”. For the same compound, the “Biofilm Eradication Concentration 90 (BEC90) S. aureus ATCC 25923” value in data set [3] (preformed 20 h biofilm, 2 h treatment in PBS at 37 °C, MTT, concentration reducing at least 90% of biofilm cells) was found to be 12.5 µM. Moreover, in data set [4] (peptide 5 μM), the “GPlaurdan DOPG/DOPE/CL + cmpd” value is “–0.07” and the “GPlaurdan DOPG/CL + cmpd” value is given as “–0.23”. Also, in data set [4] (peptide 30 μM), the “GPlaurdan DOPG/DOPE/CL + cmpd” value stood at 0.1 and the “GPlaurdan DOPG/CL + cmpd” value is 0.04.
